Laboratory results reported in PubChem BioAssay (NCI).
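Briefly, cells in 96-well plates were exposed to five compound concentrations for 48 h, and endpoints were estimated by linear interpolation. GI50 = concentration required for 50% inhibition of growth. TGI denotes the concentration required for complete inhibition of growth.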

Legend:
Assay in all cases: NCI tumour cell line growth inhibition, 48 h
HOP-92 NSCLC = tested on: HOP-92 NSCLC
HS 578T breast = tested on: HS 578T breast
K-562 leukemia = tested on: K-562 leukemia
MOLT-4 leukemia = tested on: MOLT-4 leukemia
SF-539 CNS = tested on: SF-539 CNS
SK-MEL-28 melanoma = tested on: SK-MEL-28 melanoma
UACC-62 melanoma = tested on: UACC-62 melanoma
UO-31 renal = tested on: UO-31 renal

O=C1OC(OC/C(Br)=C(\Br)COC2OC(=O)C(Cl)=C2Cl)C(Cl)=C1Cl (centres undefined)
TGI (HOP-92 NSCLC): 10.7 µM
TGI (HS 578T breast): 31.7 µM
TGI (K-562 leukemia): 5.55 µM
TGI (MOLT-4 leukemia): 2.38 µM
TGI (SF-539 CNS): 21.9 µM
TGI (SK-MEL-28 melanoma): 22.1 µM
TGI (UACC-62 melanoma): 16.9 µM
TGI (UO-31 renal): 8.12 µM

Oc1c(C(Nc2ccccn2)c2ccccc2)ccc2cccnc12 (centres undefined)
TGI (HOP-92 NSCLC): 9.97 µM
TGI (HS 578T breast): > 87.9 µM
TGI (K-562 leukemia): 24.9 µM
TGI (MOLT-4 leukemia): > 25.4 µM
TGI (SF-539 CNS): 9.68 µM
TGI (SK-MEL-28 melanoma): > 100 µM
TGI (UACC-62 melanoma): 22.2 µM
TGI (UO-31 renal): 41.4 µM

O=C1/C=C/[C@@H](O)[C@@H]2C[C@@H](O)C[C@H]2/C=C/CCC[C@H](CCO)O1
GI50 (HOP-92 NSCLC): 0.233 µM
TGI (HOP-92 NSCLC): 0.93 µM
GI50 (HS 578T breast): 0.0519 µM
TGI (HS 578T breast): > 100 µM
GI50 (K-562 leukemia): 0.365 µM
TGI (K-562 leukemia): > 100 µM
GI50 (MOLT-4 leukemia): 0.358 µM
GI50 (SF-539 CNS): 0.469 µM
TGI (SF-539 CNS): > 100 µM
GI50 (SK-MEL-28 melanoma): 0.0466 µM
TGI (SK-MEL-28 melanoma): 0.56 µM
GI50 (UACC-62 melanoma): 0.186 µM
TGI (UACC-62 melanoma): > 100 µM
GI50 (UO-31 renal): 0.22 µM
TGI (UO-31 renal): > 100 µM

COc1cc2ncnc(Oc3ccc(NC(=O)Nc4ccc(CN5CCOCC5)c(C(F)(F)F)c4)c4ccccc34)c2cc1OC
GI50 (HOP-92 NSCLC): 0.413 µM
TGI (HOP-92 NSCLC): 6.74 µM
GI50 (HS 578T breast): 1.28 µM
TGI (HS 578T breast): 7.27 µM
TGI (K-562 leukemia): 1.5 µM
GI50 (MOLT-4 leukemia): 0.199 µM
TGI (MOLT-4 leukemia): 2.08 µM
GI50 (SF-539 CNS): 1.36 µM
TGI (SF-539 CNS): 16.1 µM
GI50 (SK-MEL-28 melanoma): 0.666 µM
TGI (SK-MEL-28 melanoma): 3.03 µM
GI50 (UACC-62 melanoma): 0.637 µM
TGI (UACC-62 melanoma): 3 µM
GI50 (UO-31 renal): 0.189 µM
TGI (UO-31 renal): 2.98 µM

CCC(=O)NC1=C(Cl)C(=O)C(NC(=O)CC)=C(Cl)C1=O
GI50 (HOP-92 NSCLC): 9.98 µM
TGI (HOP-92 NSCLC): 28.8 µM
GI50 (HS 578T breast): 26.6 µM
TGI (HS 578T breast): 69.7 µM
GI50 (K-562 leukemia): 11.8 µM
TGI (K-562 leukemia): > 27.9 µM
GI50 (MOLT-4 leukemia): 9.55 µM
TGI (MOLT-4 leukemia): > 21.9 µM
GI50 (SF-539 CNS): > 44.4 µM
TGI (SF-539 CNS): > 58.2 µM
GI50 (SK-MEL-28 melanoma): 10.5 µM
TGI (SK-MEL-28 melanoma): 23.2 µM
GI50 (UACC-62 melanoma): 29.7 µM
TGI (UACC-62 melanoma): > 57.3 µM
GI50 (UO-31 renal): 5.97 µM
TGI (UO-31 renal): 11.4 µM

CC(C)(C)NCC(O)c1ccccc1Cl (centres undefined)
GI50 (HOP-92 NSCLC): > 100 µM
TGI (HOP-92 NSCLC): > 100 µM
GI50 (HS 578T breast): > 100 µM
TGI (HS 578T breast): > 100 µM
GI50 (K-562 leukemia): > 100 µM
TGI (K-562 leukemia): > 100 µM
GI50 (MOLT-4 leukemia): > 100 µM
TGI (MOLT-4 leukemia): > 100 µM
GI50 (SF-539 CNS): > 100 µM
TGI (SF-539 CNS): > 100 µM
GI50 (SK-MEL-28 melanoma): > 100 µM
TGI (SK-MEL-28 melanoma): > 100 µM
GI50 (UACC-62 melanoma): > 100 µM
TGI (UACC-62 melanoma): > 100 µM
GI50 (UO-31 renal): > 100 µM
TGI (UO-31 renal): > 100 µM

C[C@]12CC[C@H]3[C@@H](CC[C@]4(O)C[C@@H](O)CC[C@]34C=O)[C@@]1(O)CC[C@@H]2C1=CC(=O)OC1
TGI (HS 578T breast): > 100 µM
TGI (K-562 leukemia): > 100 µM
TGI (MOLT-4 leukemia): 0.907 µM
TGI (SF-539 CNS): 0.967 µM
TGI (SK-MEL-28 melanoma): 4.84 µM
TGI (UACC-62 melanoma): 3.38 µM
TGI (UO-31 renal): 2.91 µM

OC(c1cc(C(F)(F)F)nc2c(Cl)cc(Cl)cc12)C1CCCCN1 (centres undefined)
TGI (HOP-92 NSCLC): 21.9 µM
TGI (HS 578T breast): > 48.4 µM
TGI (K-562 leukemia): > 34.1 µM
TGI (MOLT-4 leukemia): 22.9 µM
TGI (SF-539 CNS): 29.9 µM
TGI (SK-MEL-28 melanoma): 29.5 µM
TGI (UACC-62 melanoma): > 47.7 µM
TGI (UO-31 renal): 3.22 µM

CCCCCCC(=O)NC1=C(N2CC2)C(=O)C(NC(=O)CCCCCC)=C(N2CC2)C1=O
GI50 (HS 578T breast): 3.11 µM
TGI (HS 578T breast): > 100 µM
GI50 (SF-539 CNS): 2.37 µM
TGI (SF-539 CNS): > 100 µM
GI50 (SK-MEL-28 melanoma): > 100 µM
TGI (SK-MEL-28 melanoma): > 100 µM
GI50 (UACC-62 melanoma): 1.87 µM
TGI (UACC-62 melanoma): > 100 µM
GI50 (UO-31 renal): 6.15 µM
TGI (UO-31 renal): > 100 µM

COc1cc2c(cc1OCC(=O)Nc1ccc(Cl)cc1C(=O)c1ccccc1Cl)N=CC1CCCN1C2=O (centres undefined)
GI50 (HOP-92 NSCLC): 10.9 µM
TGI (HOP-92 NSCLC): 28.8 µM
GI50 (HS 578T breast): 7.17 µM
TGI (HS 578T breast): 24 µM
GI50 (K-562 leukemia): 4.23 µM
TGI (K-562 leukemia): 19.9 µM
GI50 (MOLT-4 leukemia): 4.44 µM
TGI (MOLT-4 leukemia): 28.2 µM
GI50 (SF-539 CNS): 19.6 µM
TGI (SF-539 CNS): 33.9 µM
GI50 (SK-MEL-28 melanoma): 19.9 µM
TGI (SK-MEL-28 melanoma): 36.4 µM
GI50 (UACC-62 melanoma): 15.2 µM
TGI (UACC-62 melanoma): 29.2 µM
GI50 (UO-31 renal): 7.97 µM
TGI (UO-31 renal): 20.5 µM

COc1cccc(N2CC(O)=C(c3nc4ccccc4s3)C2=N)c1
GI50 (HOP-92 NSCLC): 3.99 µM
TGI (HOP-92 NSCLC): > 57.2 µM
GI50 (HS 578T breast): 0.47 µM
TGI (HS 578T breast): > 44.7 µM
GI50 (K-562 leukemia): < 0.0204 µM
TGI (K-562 leukemia): > 100 µM
GI50 (MOLT-4 leukemia): 0.166 µM
TGI (MOLT-4 leukemia): > 100 µM
GI50 (SF-539 CNS): 0.451 µM
TGI (SF-539 CNS): 26.6 µM
GI50 (SK-MEL-28 melanoma): 0.468 µM
TGI (SK-MEL-28 melanoma): > 65 µM
GI50 (UACC-62 melanoma): 0.239 µM
TGI (UACC-62 melanoma): 2.61 µM
GI50 (UO-31 renal): 0.717 µM
TGI (UO-31 renal): > 70.3 µM

O=C(Nc1ccc(Cl)c(Cl)c1)c1ccc(NC2=C(Cl)C(=O)N(Cc3ccccc3)C2=O)cc1
GI50 (HS 578T breast): 5.37 µM
TGI (HS 578T breast): 27 µM
GI50 (K-562 leukemia): 2.34 µM
TGI (K-562 leukemia): 5.93 µM
GI50 (MOLT-4 leukemia): 2.18 µM
TGI (MOLT-4 leukemia): 5.02 µM
GI50 (SF-539 CNS): 16 µM
TGI (SF-539 CNS): 30.1 µM
GI50 (SK-MEL-28 melanoma): 21.2 µM
TGI (SK-MEL-28 melanoma): 63.5 µM
GI50 (UACC-62 melanoma): 4.93 µM
TGI (UACC-62 melanoma): 17.7 µM
GI50 (UO-31 renal): 13.1 µM
TGI (UO-31 renal): 25.8 µM

COc1ccc2c3ccnc(C(F)(F)F)c3n(CCCCN)c2c1
GI50 (HS 578T breast): 4.09 µM
TGI (HS 578T breast): 22.8 µM
GI50 (K-562 leukemia): 5.73 µM
TGI (K-562 leukemia): 22.8 µM
GI50 (MOLT-4 leukemia): 3.93 µM
TGI (MOLT-4 leukemia): 12.8 µM
GI50 (SF-539 CNS): 6.58 µM
TGI (SF-539 CNS): 20.2 µM
GI50 (SK-MEL-28 melanoma): 1.92 µM
TGI (SK-MEL-28 melanoma): 3.82 µM
GI50 (UACC-62 melanoma): 10.8 µM
TGI (UACC-62 melanoma): 23.2 µM
GI50 (UO-31 renal): 1.6 µM
TGI (UO-31 renal): 8.36 µM

CCN1CCN(c2ccc(NC(=O)Nc3nc4ccc(-c5ccccc5OC)cc4s3)cc2)CC1
GI50 (HOP-92 NSCLC): 1.47 µM
TGI (HOP-92 NSCLC): 3.75 µM
GI50 (HS 578T breast): 1.95 µM
TGI (HS 578T breast): 4.45 µM
GI50 (MOLT-4 leukemia): 1.8 µM
TGI (MOLT-4 leukemia): 3.67 µM
GI50 (SF-539 CNS): 1.6 µM
TGI (SF-539 CNS): 3.03 µM
GI50 (SK-MEL-28 melanoma): 1.76 µM
TGI (SK-MEL-28 melanoma): 3.26 µM
GI50 (UACC-62 melanoma): 1.87 µM
TGI (UACC-62 melanoma): 3.45 µM
GI50 (UO-31 renal): 1.52 µM
TGI (UO-31 renal): 2.92 µM

[N-]=[N+]=C(C(=O)CN1CCCC1=O)S(=O)(=O)c1ccccc1
TGI (HS 578T breast): > 100 µM
TGI (K-562 leukemia): > 100 µM
TGI (MOLT-4 leukemia): > 100 µM
TGI (SF-539 CNS): > 100 µM
TGI (SK-MEL-28 melanoma): > 100 µM
TGI (UACC-62 melanoma): > 100 µM
TGI (UO-31 renal): > 100 µM

Nc1nc2cc(Cl)ccc2n1N
TGI (HS 578T breast): > 100 µM
TGI (K-562 leukemia): > 100 µM
TGI (MOLT-4 leukemia): > 100 µM
TGI (SF-539 CNS): > 100 µM
TGI (SK-MEL-28 melanoma): > 100 µM
TGI (UACC-62 melanoma): > 100 µM
TGI (UO-31 renal): > 100 µM

COc1ccc(C(=O)/C=C/c2ccc(OCc3cccc(C(F)(F)F)c3)c(OC)c2)cc1OC
GI50 (HOP-92 NSCLC): 142 µM
TGI (HOP-92 NSCLC): > 1000 µM
GI50 (HS 578T breast): 92.4 µM
TGI (HS 578T breast): > 1000 µM
GI50 (MOLT-4 leukemia): 27.7 µM
TGI (MOLT-4 leukemia): > 1000 µM
GI50 (SF-539 CNS): 65.3 µM
TGI (SF-539 CNS): > 1000 µM
GI50 (SK-MEL-28 melanoma): 262 µM
TGI (SK-MEL-28 melanoma): > 1000 µM
GI50 (UACC-62 melanoma): 52.2 µM
TGI (UACC-62 melanoma): > 1000 µM
GI50 (UO-31 renal): 47.3 µM
TGI (UO-31 renal): > 1000 µM

CCCCCCCCN(CCCCCCCC)CC(O)c1cc(-c2ccccc2)nc2ccc(OC)cc12 (centres undefined)
GI50 (HOP-92 NSCLC): 57.5 µM
TGI (HOP-92 NSCLC): > 100 µM
GI50 (HS 578T breast): > 100 µM
TGI (HS 578T breast): > 100 µM
GI50 (MOLT-4 leukemia): 23.1 µM
TGI (MOLT-4 leukemia): > 100 µM
GI50 (SF-539 CNS): 22.3 µM
TGI (SF-539 CNS): 64.8 µM
GI50 (SK-MEL-28 melanoma): 62.3 µM
TGI (SK-MEL-28 melanoma): > 100 µM
GI50 (UACC-62 melanoma): 21.5 µM
TGI (UACC-62 melanoma): > 100 µM
GI50 (UO-31 renal): 34.4 µM
TGI (UO-31 renal): > 100 µM
